In patent publication US10093673B2, “Tetracyclic pyridone compounds as antivirals” (Novartis AG, priority 2016, dated 2018):
≈ marks a conversion by molar mass, not a printed value.

Tests used:
[1] = Pharmacokinetics in dog (iv and PO); assay type: in vivo
[2] = target: Nav1.5 (Homo sapiens (Human), UniProt Q14524); test: Inhibition of cardiac sodium ion channel Nav1.5; assay type: biochemical
[3] = test system: HBsAg secretion; test: HBsAg assay (ELISA of secreted HBsAg, HepG2-Clone42 cells); assay type: cell-based, HBV; conditions: Hepatitis B virus, read-out: HBsAg EC50, HepG2-Clone42 cells, HBsAg secretion reduced 50% vs DMSO control
Method: HepG2-Clone42, a Tet-inducible HBV-expressing cell line with a stably integrated 1.3mer copy of the HBV ayw strain, was generated based on the Tet-inducible HepAD38 cell line with slight modifications. Ladner S K, et al., Antimicrobial Agents and Chemotherapy. 41(8):1715-1720 (1997). HepG2-Clone42 cells were cultured in DMEM/F-12+Glutamax™ (Life Technologies, Carlsbad, Calif., USA), supplemented with 10% fetal bovine serum (Life Technologies), G-418 (Corning, Manassas, Va., USA) at a final concentration of 0.5 mg/mL, and 5 μg/mL Doxycycline (Sigma, St. Louis, Mo., USA) and maintained in 5% CO2 at 37° C.
HepG2-Clone42 cells were seeded in into black clear-bottom 96-well plates at a concentration of 6.0×10^4 cells/well. 24 hours post-seeding, the cells were treated with 200 μl/well of media containing five-fold serial dilutions of compounds in DMSO. DMSO alone was used as the no drug control. The final DMSO concentration in all wells was 0.5%.
The HBsAg ELISA kit (Alpha Diagnostic International, San Antonio, Tex., USE, Catalog #4110) was used to determine the level (semi-quantitative) of secreted HBV sAg.
The HBSAg ELISA assay was performed following the manufacturer's protocol as described.
Step 1. Pipet 100 μL each of compound or DMSO treated samples into HBsAg ELISA plates. Seal plates and incubate at room temp for 60 minutes.
Step 2. Aspirate samples and wash three times with Wash Buffer. Dispense 100μ of antibody-HRP conjugate to each well. Incubate at room temp for 30 minutes.
Step 3. Aspirate samples and wash three times with Wash Buffer. Add 100 μL of TMB Substrate to all wells and incubate 15 minutes at room temp.
Step 4. Dispense 100 μL of Stop Solution to each well. Measure absorbance of ELISA plate at 450 nm.
EC50 values were determined as follows: • 1. Determine the percent of HBsAg secretion inhibition. Calculate the percent inhibition on of HBsAg secretion inhibition using the following equation: 100×(XC−MB)/(MD−MB) • where XC is the absorbance signal from compound-treated well; MB is average absorbance signal (background signal) for column 12 (no cells+HBsAg ELISA sample buffer) and MD is average absorbance signal from DMSO-treated wells. Then calculate EC50 values by non-linear regression using a four parameter curve logistic equation. The curve fit model employed is XLFit Dose Response One Site Model 204: y=(A+((B−A)/(1+(10^((C−x)*D))))) where A is the minimum y value, B is the maximum y value, C is the log EC50 value, and D is the slope factor. High Throughput Solubility Measurement • 1. Transfer 20 ul of 10 mM DMSO stock solution into a 96 deep well plate labeled as […] and 5 ul to another plate labeled as compound standard plate. • 2. Place the buffer plate in a Multi-Tainer MT-4 container (FTS Systems). Freeze dry overnight to remove DMSO. • 3. Add 100 ul of Cl-free PBS (pH 6.8) to the dried compound in the buffer plate and 95 ul of DMSO to the standard plate. • 4. The buffer plate is be sonicated in a water bath for 10 min. • 5. The two plates are then placed onto the VWR orbital shaker to equilibrate for 24 hours at room temperature. • 6. The buffer plate is centrifuged at 4000 rpm for 30 min. • 7. Transfer 10 ul aliquots of supernatant from the buffer plate to a sample plate and dilute 5 fold. • 8. Inject both compound standard and sample into the UPLC/UV/CLND/MS to generate multi detector qualitative and quantitive analytical data. • 9. Data was processed with Xcalibur. CLND equimolar response was used for measuring compound concentration of DMSO solution. UV270 nm or MS relative ratio was used for solubility determination.

[4] = Pharmacokinetics in rat (iv and PO); assay type: in vivo
[5] = High throughput solubility measurement in PBS; assay type: physicochemical; conditions: Cl-free PBS, aqueous buffer, thermodynamic from solid; PBS (phosphate-buffered saline), pH 6.8, 24 hours at room temperature
From the text: The following table provides data for solubility of compounds of the invention in PBS (phosphate-buffered saline), using a standard solubility screening method.

[6] = Pharmacokinetics in mice (iv and PO); assay type: in vivo

COCCCOc1cc2c(cc1OC)-c1cc(=O)c(C(=O)O)cn1[C@H]1[C@@H]2OCC1(C)C [Compound 4.1, (3aR,12bR)-10-methoxy-11-(3-methoxypropoxy)-3,3-dimethyl-7-oxo-3,3a,7,12b-tetrahydro-2H-furo[3,2-c]pyrido[2,1-a]isoquinoline-6-carboxylic acid]
T1/2term. [1]: 12.3 h | Cmax ([1]; in vivo, PO 1.0 mg/kg): 3300 nM | Tmax ([1]; in vivo, PO 1.0 mg/kg): 0.8 h | AUC ([1]; in vivo, PO 1.0 mg/kg, read-out: AUC PO): 12.8 µM·h | clearance ([1]; in vivo, iv 0.5 mg/kg): 2.7 mL/min/kg | bioavailability ([1]; in vivo, iv 0.5 mg/kg, PO 1.0 mg/kg, read-out: Oral BA (% F)): 94% | AUC ([1]; in vivo, iv 0.5 mg/kg, read-out: AUC iv): 6.2 µM·h | Vd ([1]; in vivo, iv 0.5 mg/kg, read-out: Vss): 1.7 L/kg | EC50 [2]: > 500000 nM | EC50 [3]: 0.3 nM | T1/2term. [4]: 1.2 h | Cmax ([4]; in vivo, PO 2.0 mg/kg): 2600 nM | Tmax ([4]; in vivo, PO 2.0 mg/kg): 2 h | AUC ([4]; in vivo, PO 2.0 mg/kg, read-out: AUC PO): 10.2 µM·h | clearance ([4]; in vivo, iv 1.0 mg/kg): 4.9 mL/min/kg | bioavailability ([4]; in vivo, iv 1.0 mg/kg, PO 2.0 mg/kg, read-out: Oral BA (% F)): 65% | AUC ([4]; in vivo, iv 1.0 mg/kg, read-out: AUC iv): 8 µM·h | Vd ([4]; in vivo, iv 1.0 mg/kg, read-out: Vss): 0.75 L/kg | solubility at 24 h [5]: 1600 µM (≈ 687 µg/mL) | T1/2term. [6]: 1.8 h | Cmax ([6]; mouse, in vivo, PO 2.0 mg/kg): 1900 nM | Tmax ([6]; mouse, in vivo, PO 2.0 mg/kg): 1 h | AUC ([6]; mouse, in vivo, PO 2.0 mg/kg, read-out: AUC PO): 7.2 µM·h | clearance ([6]; mouse, in vivo, iv 1.0 mg/kg): 12.7 mL/min/kg | bioavailability ([6]; mouse, in vivo, iv 1.0 mg/kg, PO 2.0 mg/kg, read-out: Oral BA (% F)): 100% | AUC ([6]; mouse, in vivo, iv 1.0 mg/kg, read-out: AUC iv): 2.9 µM·h | Vd ([6]; mouse, in vivo, iv 1.0 mg/kg, read-out: Vss): 1.5 L/kg
